In patent publication US20240116985A1, “STAPLED PEPTIDES AND METHODS THEREOF” (priority 2020, published 2024):
Read-outs that look alike come from different tables or passages of the source.

Assays:
[1] = biological target: T1, full-length beta-Catenin (Uniprot ID P35222) (Homo sapiens, UniProt P35222); assay: Fluorescence polarization IC50 (beta-catenin / 5FAM-TCF4 10-53 competition); assay type: binding; conditions: fluorescence polarization; read-out: beta-Catenin FP IC50
T1 construct: 10 nM full-length beta-Catenin (Uniprot ID P35222)
T1 sequence (P35222 1-781): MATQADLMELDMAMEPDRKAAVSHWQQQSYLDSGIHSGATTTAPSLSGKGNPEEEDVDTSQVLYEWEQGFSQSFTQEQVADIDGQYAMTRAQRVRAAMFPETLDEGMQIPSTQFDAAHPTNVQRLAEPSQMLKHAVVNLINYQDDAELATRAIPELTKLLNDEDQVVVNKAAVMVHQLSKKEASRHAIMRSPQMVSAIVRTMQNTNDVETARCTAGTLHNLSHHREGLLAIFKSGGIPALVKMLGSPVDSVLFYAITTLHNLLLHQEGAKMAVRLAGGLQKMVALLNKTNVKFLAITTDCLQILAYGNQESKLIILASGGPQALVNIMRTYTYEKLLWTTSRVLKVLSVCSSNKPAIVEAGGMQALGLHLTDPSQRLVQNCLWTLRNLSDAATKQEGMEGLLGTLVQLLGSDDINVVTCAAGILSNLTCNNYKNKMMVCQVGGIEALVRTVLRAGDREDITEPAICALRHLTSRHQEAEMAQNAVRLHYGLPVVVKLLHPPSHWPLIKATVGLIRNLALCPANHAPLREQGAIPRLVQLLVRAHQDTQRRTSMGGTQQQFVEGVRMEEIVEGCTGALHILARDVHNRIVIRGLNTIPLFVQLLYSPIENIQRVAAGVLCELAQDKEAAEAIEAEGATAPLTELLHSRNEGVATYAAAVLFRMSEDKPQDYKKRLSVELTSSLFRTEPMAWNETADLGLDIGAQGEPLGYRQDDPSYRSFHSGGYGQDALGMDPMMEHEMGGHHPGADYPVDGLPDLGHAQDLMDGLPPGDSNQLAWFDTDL

[2] = biological target: T2, beta-catenin/TCF4 engagement (Homo sapiens, UniProt P35222); assay: Nano-BRET target engagement assay (B-cat-Halo & TCF4-Luc in HEK293 cells); assay type: cell-based; conditions: read-out: NanoBRET Abs IC50
T2 construct: expressed in transfected cells; host or cells: HEK293
T2 sequence (P35222 1-781): T1 sequence (P35222 1-781)

SMILES: CC(=O)N1CCC[C@]12CC=CCCCC1(CCCC=CCCCOC(=O)N3CC[C@@](C(=O)N[C@@H](Cc4ccccc4)C(=O)N[C@@H](Cc4csc5ccccc45)C(=O)N[C@@H](CCO)C(N)=O)(C3)NC(=O)[C@H](CCCCNC(C)C)NC(=O)[C@H](Cc3ccccc3)NC(=O)[C@H](C)NC(=O)[C@H](CCCCNC(C)C)NC(=O)[C@H](CCC(N)=O)NC(=O)[C@H](CC(=O)O)NC1=O)NC(=O)[C@H](CC1CCCCC1)NC(=O)[C@H](CC(N)=O)NC2=O (stereo partly drawn) [I-2102, Ac-PL3-Asn-Cha-B5-Asp-Gln-iPrLys-Ala-Phe-iPrLys-PyrS2-Phe-BztA-Hse-NH2]
- IC50 [1]: 273 nM
- IC50 [2]: > 20 µM

SMILES: CC(=O)N1CCC[C@]12CC=CCCCC1(CCCC=CCCCOC(=O)N3CC[C@@](C(=O)N[C@@H](Cc4ccccc4Cl)C(=O)N[C@@H](Cc4csc5ccccc45)C(=O)N[C@@H](CCC(N)=O)C(N)=O)(C3)NC(=O)[C@H](CC(C)C)NC(=O)[C@H](Cc3ccccc3)NC(=O)[C@H](C)NC(=O)[C@H](C)NC(=O)[C@H](Cc3ccc(F)c(C(=O)O)c3)NC(=O)[C@H](CC(=O)O)NC1=O)NC(=O)[C@H](CC(C)(C)C)NC(=O)[C@H](CC(=O)O)NC2=O (stereo partly drawn) [I-2203, Ac-PL3-Asp-Npg-B5-Asp-4F3COOHF-Ala-Ala-Phe-Leu-PyrS2-2C1F-BztA-Gln-NH2]
- IC50 [1]: 9 nM
- IC50 [2]: 2.9 µM

SMILES: CC(=O)N1CCC[C@]12CC=CCCCC1(CCCC=CCCCOC(=O)N3CC[C@@](C(=O)N[C@@H](Cc4ccsc4)C(=O)N[C@@H](Cc4csc5ccccc45)C(=O)N[C@@H](CCC(N)=O)C(N)=O)(C3)NC(=O)[C@H](CCO)NC(=O)[C@H](Cc3cccc(C(=O)O)c3)NC(=O)[C@H](C)NC(=O)[C@H](C)NC(=O)[C@H](CCc3ccc(O)cc3)NC(=O)[C@H](CC(=O)O)NC1=O)NC(=O)[C@H](CC(C)(C)C)NC(=O)[C@H](CC(=O)O)NC2=O (stereo partly drawn) [I-2117, Ac-PL3-Asp-Npg-B5-Asp-hTyr-Ala-Ala-3COOHF-Hse-PyrS2-3Thi-BztA-Gln-NH2]
- IC50 [1]: 19 nM
- IC50 [2]: > 20 µM

SMILES: CC(=O)N1CCC[C@]12CC=CCCCC1(CCCC=CCCCCCC[C@@](C)(C(=O)N[C@@H](Cc3ccccc3)C(=O)N[C@@H](Cc3csc4ccccc34)C(=O)N[C@@H](CCC(N)=O)C(N)=O)NC(=O)[C@H](CCC(N)=O)NC(=O)[C@H](Cc3ccccc3)NC(=O)[C@H](C)NC(=O)[C@H](C)NC(=O)[C@H](CCC(=O)O)NC(=O)[C@H](CC(=O)O)NC1=O)NC(=O)[C@H](CO)NC(=O)[C@H](CC(=O)O)NC2=O (stereo partly drawn) [I-1527, Ac-PL3-Asp-Ser-B5-Asp-Glu-Ala-Ala-Phe-Gln-S8-Phe-BztA-Gln-NH2]
- IC50 [1]: 36 nM
- IC50 ([2]; absolute IC50): 30.3 µM

SMILES: CC(=O)N1CCC[C@]12CC=CCC1(CC=CCCCCCOC(=O)N3CC[C@](C(=O)N[C@@H](Cc4ccsc4)C(=O)N[C@@H](Cc4csc5ccccc45)C(=O)N[C@@H](CCC(N)=O)C(N)=O)(C3)NC(=O)[C@H](CC(C)C)NC(=O)[C@H](Cc3ccccc3)NC(=O)[C@H](C)NC(=O)[C@H](C)NC(=O)[C@H](CC(=O)O)NC(=O)[C@H](CC(=O)O)NC1=O)NC(=O)[C@H](CC(C)(C)C)NC(=O)[C@H](CC(=O)O)NC2=O (single isomer, unassigned) [I-2159, Ac-PL3-Asp-Npg-B3-Asp-Asp-Ala-Ala-Phe-Leu-PyrS4-3Thi-BztA-Gln-NH2]
- IC50 [1]: 116 nM
- IC50 [2]: > 20 µM

SMILES: CC(=O)N1CCC[C@]12CC=CCCCC1(CCCC=CCCCOC(=O)N3CC[C@@](C(=O)N[C@@H](Cc4ccsc4)C(=O)N[C@H](C(=O)N[C@@H](C)C(N)=O)[C@H](C)c4ccc5ccccc5c4)(C3)NC(=O)[C@H](C(C)C)NC(=O)[C@H](Cc3ccccc3)NC(=O)[C@H](C)NC(=O)[C@H](CCC(N)=O)NC(=O)[C@H](Cc3cccc(C(=O)O)c3)NC(=O)[C@H](CC(=O)O)NC1=O)NC(=O)[C@H](CC(C)(C)C)NC(=O)[C@H](CC(=O)O)NC2=O (stereo partly drawn) [I-2312, Ac-PL3-Asp-Npg-B5-Asp-3COOHF-Gln-Ala-Phe-Val-PyrS2-3Thi-RbMe2NapA-Ala-NH2]
- IC50 [1]: 5 nM
- IC50 ([2]; absolute IC50): 5.2 µM

SMILES: CC(=O)N1CCC[C@]12CC=CCCCC1(CCCC=CCCCOC(=O)N3CC[C@@](C(=O)N[C@@H](Cc4ccccc4)C(=O)N[C@@H](Cc4csc5ccccc45)C(=O)N[C@@H](CCCCN)C(N)=O)(C3)NC(=O)[C@H](CC(C)C)NC(=O)[C@H](Cc3ccccc3)NC(=O)[C@H](C)NC(=O)[C@H](CCCCNC(C)C)NC(=O)[C@H]([C@@H](C)O)NC(=O)[C@H](CC(=O)O)NC1=O)NC(=O)[C@H](CC1CCCCC1)NC(=O)[C@H](CC(N)=O)NC2=O (stereo partly drawn) [I-2450, Ac-PL3-Asn-Cha-B5-Asp-Thr-iPrLys-Ala-Phe-Leu-PyrS2-Phe-BztA-Lys-NH2]
- IC50 [1]: 63 nM
- IC50 ([2]; absolute IC50): > 20 µM

SMILES: CC(=O)N1CCC[C@]12CC=CCCCC1(CCCC=CCCCOC(=O)N3CC[C@@](C(=O)N[C@@H](Cc4ccccc4Cl)C(=O)N[C@@H](Cc4csc5ccccc45)C(=O)N[C@@H](CO)C(N)=O)(C3)NC(=O)[C@H](CC(C)C)NC(=O)[C@H](Cc3ccccc3)NC(=O)[C@H](C)NC(=O)[C@H](CO)NC(=O)[C@H](Cc3cccc(C(=O)O)c3)NC(=O)[C@H](CC(=O)O)NC1=O)NC(=O)[C@H](CC(C)(C)C)NC(=O)[C@H](CC(=O)O)NC2=O (stereo partly drawn) [I-1901, Ac-PL3-Asp-Npg-B5-Asp-3COOHF-Ser-Ala-Phe-Leu-PyrS2-2C1F-BztA-Ser-NH2]
- IC50 [1]: 34 nM
- IC50 [2]: 4.9 µM

SMILES: CC(=O)N1CCC[C@]12CC=CCCCC1(CCCC=CCCCOC(=O)N3CC[C@@](C(=O)N[C@@H](Cc4ccsc4)C(=O)N[C@@H](Cc4csc5ccccc45)C(=O)N[C@@H](C)C(N)=O)(C3)NC(=O)[C@H](CC(C)C)NC(=O)[C@H](Cc3ccccc3)NC(=O)[C@H](C)NC(=O)[C@H](Cc3c[nH]cn3)NC(=O)[C@H](Cc3cccc(C(=O)O)c3)NC(=O)[C@H](CC(=O)O)NC1=O)NC(=O)[C@H](CC(C)(C)C)NC(=O)[C@H](CC(=O)O)NC2=O (stereo partly drawn) [I-1916, Ac-PL3-Asp-Npg-B5-Asp-3COOHF-His-Ala-Phe-Leu-PyrS2-3Thi-BztA-Ala-NH2]
- IC50 [1]: 8 nM
- IC50 [2]: 9.2 µM

SMILES: CC(=O)N1CCC[C@]12CC=CCCCC1(CCCC=CCCCOC(=O)N3CC[C@@](C(=O)N[C@@H](Cc4ccccc4Cl)C(=O)N[C@@H](Cc4csc5ccccc45)C(=O)N[C@@H](Cc4ccccc4)C(N)=O)(C3)NC(=O)[C@H](CO)NC(=O)[C@H](Cc3ccccc3)NC(=O)[C@H](C)NC(=O)[C@H](C)NC(=O)[C@H](Cc3cccc(C(=O)O)c3)NC(=O)[C@H](CC(=O)O)NC1=O)NC(=O)[C@H](CC(C)(C)C)NC(=O)[C@H](CC(=O)O)NC2=O (stereo partly drawn) [I-2029, Ac-PL3-Asp-Npg-B5-Asp-3COOHF-Ala-Ala-Phe-Ser-PyrS2-2C1F-BztA-Phe-NH2]
- IC50 [1]: 35 nM
- IC50 [2]: 26.2 µM

SMILES: CCNC(=O)[C@H](CCC(N)=O)NC(=O)[C@H](Cc1csc2ccccc12)NC(=O)[C@H](Cc1ccccc1Cl)NC(=O)[C@]12CCN(C1)C(=O)OCCCC=CCCCC1(CCCC=CC[C@]3(CCCN3C(C)=O)C(=O)N[C@@H](CC(=O)O)C(=O)N[C@@H](CC(C)(C)C)C(=O)N1)C(=O)N[C@@H](CC(=O)O)C(=O)N[C@@H](Cc1cccc(C(=O)O)c1)C(=O)N[C@@H](C)C(=O)N[C@@H](C)C(=O)N[C@@H](Cc1ccccc1)C(=O)N[C@@H](CC(C)C)C(=O)N2 (stereo partly drawn) [I-1672, Ac-PL3-Asp-Npg-B5-Asp-3COOHF-Ala-Ala-Phe-Leu-PyrS2-2C1F-BztA-Gln-NHEt]
- IC50 [1]: 40 nM
- IC50 ([2]; absolute IC50): 7.1 µM

SMILES: CC(=O)N1CCC[C@]12CC=CCCCC1(CCCC=CCCCOC(=O)N3CC[C@@](C(=O)N[C@@H](Cc4ccccc4)C(=O)N[C@@H](Cc4csc5ccccc45)C(=O)N[C@@H](CO)C(N)=O)(C3)NC(=O)[C@H]([C@@H](C)O)NC(=O)[C@H](Cc3cccc(C(F)(F)F)c3)NC(=O)[C@H](C)NC(=O)[C@H](C)NC(=O)[C@H]([C@@H](C)O)NC(=O)[C@H](CC(=O)O)NC1=O)NC(=O)[C@H](CC(C)(C)C)NC(=O)[C@H](CC(=O)O)NC2=O (stereo partly drawn) [I-1268, Ac-PL3-Asp-Npg-B5-Asp-Thr-Ala-Ala-3F3MeF-Thr-PyrS2-Phe-BztA-Ser-NH2]
- IC50 [1]: 198 nM
- IC50 ([2]; absolute IC50): 28.4 µM

SMILES: CC(=O)N1CCC[C@]12CC=CCCCC1(CCCC=CCCCOC(=O)N3CC[C@@](C(=O)N[C@@H](Cc4ccccc4)C(=O)N[C@@H](Cc4csc5ccccc45)C(=O)N[C@@H](CC(=O)N4CCOCC4)C(N)=O)(C3)NC(=O)[C@H](CC(C)C)NC(=O)[C@H](Cc3ccccc3)NC(=O)[C@H](C)NC(=O)[C@H](CCC(N)=O)NC(=O)[C@H](CCC(N)=O)NC(=O)[C@H](CC(=O)O)NC1=O)NC(=O)[C@H](CC1CCCCC1)NC(=O)[C@H](CC(N)=O)NC2=O (stereo partly drawn) [I-2504, Ac-PL3-Asn-Cha-B5-Asp-Gln-Gln-Ala-Phe-Leu-PyrS2-Phe-BztA-MorphAsn-NH2]
- IC50 [1]: 210 nM
- IC50 ([2]; absolute IC50): > 20 µM
